The source of these data is patent US6008226A, “Substituted N-arylmethyl and heterocylylmethyl-1H-pyrazolo[3,4-b]quinolin-4-amines and compositions and methods of use thereof” (Sanofi-Synthelabo, priority 1998, dated 1999).

The target of experiment [1] is T1, cGMP-PDE V (Homo sapiens, UniProt O76074).
T1 construct: The cGMP-PDE and other PDE isozymes were isolated from cardiovascular tissues (heart and aorta); from tissue; host or cells: cardiovascular tissues (heart and aorta) of various animal species and man
Briefly: c-GMP-PDE V inhibitory activity (cyclic nucleotide hydrolysis by isolated PDE isozymes). The experiment is classed as biochemical, various animal species and man. As to conditions: for inhibition at 10 µM: read-out: Percent Inhibition cGMP-PDE V. Here is the method: The cGMP-PDE and other PDE isozymes were isolated from cardiovascular tissues (heart and aorta) of various animal species and man by anion-exchange and affinity chromatography as described by Silver et al., Sec. Messeng. Phos. 13: 13-25, 1991; PDE activity, in the presence and absence of test compounds was determined essentially as described by Thompson et al., Adv. Cyclic Nucleotide Res. 10: 69-92. To determine the potency and selectivity of compounds as PDE inhibitors, compounds are screened for their effect on cyclic nucleotide hydrolysis at 10 μM. If ≥50% inhibition of PDE activity is observed, an IC50 value (concentration of compound causing 50% reduction in PDE activity) and corresponding 95% confidence intervals are generated. The IC50 values are calculated from concentration-response curves as described by Tallarida and Murray, Manual of Pharmacologic Calculations with Computer Programs, Procedure 8, Graded Dose-response, pp. 14-19, Springer-Verlag, New York, 1981.

Experiment [2] has as its system Spontaneously hypertensive rats (SHR). Briefly: antihypertensive activity in conscious spontaneously hypertensive rats (SHR), iv. The settings on record: for ED25: Rattus norvegicus, 5 min, iv, 5 minutes after each cumulative dose, read-out: SHR iv ED25, mean arterial pressure. It is filed as in vivo, rat. Here is the method: After a 2 day recovery from surgery, three baseline blood pressure measurements were made at 5 min intervals in conscious SHR. Compounds to be tested or vehicle were then administered intravenously in a dose-dependent manner (0.3-10 mg base/kg) while arterial pressure was recorded continuously on a polygraph. The mean arterial pressure response was measured 5 minutes after the administration of each dose of the test compound and the next dose given in a cumulative dose fashion. The response to each dose of the test compound was calculated as the difference from the mean of the three baseline measurements.

The test system of the next experiment is interferon. The settings on record: Crenshaw et al.; cited from earlier work.
The target of experiment [3] is T1, cGMP-PDE V. Briefly: c-GMP-PDE V inhibitory activity (cyclic nucleotide hydrolysis by isolated PDE isozymes). The experiment is classed as biochemical, various animal species and man. The settings on record: read-out: Percent Inhibition cGMP-PDE V.

Counter-ions that a name gives are not always drawn.

The term IC50 denotes the point on the concentration scale where inhibition reaches its midpoint. Read a high IC50 as weaker potency. Compound `CCn1ncc2c(NCc3ccc(OC)cc3)c3ccccc3nc21` [Example 3, 1-ethyl-N-(4-methoxyphenylmethyl)-1H-pyrazolo[3,4-b]quinolin-4-amine·HCl·1/2H2 O] yielded a half-maximal inhibitory concentration (IC50) at cGMP-PDE V [1] of 89 nM. In other words, the double-digit nanomolar range. In the case of `CCn1ncc2c(NCCc3ccccc3)c3ccccc3nc21` [2(c), 1-ethyl-N-(phenylethyl)-1H-pyrazolo[3,4-b]quinoline-4 amine], the midpoint of inhibition against cGMP-PDE V [1], the IC50, lay at 4200 nM. The ED25 in experiment [2] was determined as 16.5 mg/kg. As to `CCn1ncc2c(NCc3ccc(O)cc3)c3cc(O)ccc3nc21` [Example 24, 1-ethyl-6-hydroxy-N-(4-hydroxyphenylmethyl)-1H-pyrazolo[3,4-b]quinolin-4-amine-CH3 SO3 H], the 50% inhibitory concentration (IC50) against cGMP-PDE V [1] turned out to be 120 nM. The “SHR iv % change in mean arterial pressure” value (“SHR iv % change” for short) in experiment [2] (1 mg/kg iv) is recorded as -10%; in experiment [2] (3 mg/kg iv) it was -9%; in experiment [2] (10 mg/kg iv), -15%. As for `Cc1nn(C)c2nc3ccccc3c(NC3CC3)c12` [N-cyclopropyl, N-cyclopropyl-1,3-dimethyl-1H-pyrazolo[3,4-b] quinolin-4-amine], in the experiment on interferon, the “activity in the interferon assay” value was “inactive”. For `CCn1ncc2c(NCc3ccco3)c3ccccc3nc21` [Example 16, 1-ethyl-N-(2-furanylmethyl)-1H-pyrazolo[3,4-b]quinolin-4-amine], in experiment [2] (10 mg/kg iv), the “SHR iv % change” value is -16%. The inhibition is the share of the control response that was lost under treatment. On to `CCn1ncc2c(NC3CCc4ccccc43)c3ccccc3nc21` (centres unmarked) [Example 22, 1-ethyl-N-(1-indanyl)-1H-pyrazolo[3,4-b]quinolin-4-amine·CH3 SO3 H], for which the inhibition at 10 µM at cGMP-PDE V [1] was found to be 94%. Besides, on cGMP-PDE V [3], the inhibition at 0.1 µM turned out to be 34% and the inhibition at 1 µM stood at 75%. At cGMP-PDE V [1], `Cc1nn(C)c2nc3ccccc3c(NCc3ccccc3)c12` [Example 12(c), 1,3-dimethyl-N-(phenylmethyl)-1H-pyrazolo[3,4-b]quinolin-4-amine] registered an IC50 of 1140 nM. Regarding `CCn1ncc2c(NCc3ccccc3)c3ccc(OC)cc3nc21` [5(e), 1-ethyl-7-methoxy-N-(phenylmethyl)-1H-pyrazolo[3,4-b]quinolin-4-amine], at cGMP-PDE V [1], the inhibition at 10 µM is 85%. At cGMP-PDE V [3], the inhibition at 0.1 µM was found to be 14% and the inhibition at 1 µM is 54%. At cGMP-PDE V [1], `CCn1ncc2c(N(C)Cc3ccccc3)c3ccccc3nc21` [Example 20, 1-ethyl-N-(methyl)-N-(phenylmethyl)-1H-pyrazolo[3,4-b]quinolin-4-amine·CH3 SO3 H] showed an IC50 of 1260 nM. On to `CCn1ncc2c(NCc3ccncc3)c3ccccc3nc21` [Example 8, 1-ethyl-N-(4-pyridinylmethyl)-1H-pyrazolo[3,4-b]quinolin-4-amine], for which, on cGMP-PDE V [1], the inhibition at 10 µM is 50%. Also, at cGMP-PDE V [3], the inhibition at 0.1 µM was determined as 0% and the inhibition at 1 µM was found to be 5%. On to `Cc1nn(C)c2nc3ccccc3c(NC34CC5CC(CC(C5)C3)C4)c12` [N-tricyclo[3.3.1.1^3,7]dec-1-yl, N-tricyclo[3.3.1.1^3,7]dec-1-yl-1,3-dimethyl-1H-pyrazolo[3,4-b] quinolin-4-amine], for which, in the experiment on interferon, the “activity in the interferon assay” value is “inactive”. As for `CCn1ncc2c(NCc3ccc(O)cc3)c3ccccc3nc21` [18(b), 1-ethyl-N-(4-hydroxyphenylmethyl)-1H-pyrazolo[3,4-b]quinolin-4-amine], the inhibition at 10 µM on cGMP-PDE V [1] amounted to 78%. In addition, at cGMP-PDE V [3], the inhibition at 0.1 µM came out at 63% and the inhibition at 1 µM is 82%. Regarding `CCn1ncc2c(NCc3ccc(OC)cc3)c3cc(OC)ccc3nc21` [23(c), 1-ethyl-6-methoxy-N-(4-methoxyphenylmethyl)-1H-pyrazolo[3,4-b]quinolin-4-amine·CH3 SO3 H], at cGMP-PDE V [1], the IC50 is 14 nM. Moreover, the “SHR iv % change” value in experiment [2] (1 mg/kg iv) is given as -7%; in experiment [2] (3 mg/kg iv), -4%. `Cc1nn(C)c2nc3ccccc3c(NCCCNC34CC5CC(CC(C5)C3)C4)c12` [N-(1,3-dimethyl-1H-pyrazolo[3,4-b]quinolin-4-yl)-N'-tricyclo[3.3.1.1^3,7]dec-1-yl-1,3-propane diamine]: the “activity in the interferon assay” value in the experiment on interferon is “inactive”. Take `CCn1ncc2c(NCc3ccccc3)c3ccccc3nc21` [1(a), 1-ethyl-N-(phenylmethyl)-1H-pyrazolo[3,4-b]quinolin-4-amine]: half-maximal inhibition on cGMP-PDE V [1] (IC50) was put at 210 nM. For the same compound, in experiment [2], the ED25 was found to be 25 mg/kg.

Consider `Cc1nn(C)c2nc3ccccc3c(NCc3ccccc3N(C)C)c12` [N-[[2-(dimethylamino)phenyl]methyl]-1,3-dimethyl-1H-pyrazolo[3,4-b] quinolin-4-amines], for which the “activity in the interferon assay” value in the experiment on interferon was “inactive”.

`CCn1ncc2c(NCc3cccc(O)c3)c3ccccc3nc21` [Example 13, 1-ethyl-N-(3-hydroxyphenylmethyl)-1H-pyrazolo [3,4-b]quinolin-4-amine]: half-maximal inhibition against cGMP-PDE V [1] (IC50) required 150 nM. As to `CCn1ncc2c(NCc3ccc(OCCN4CCOCC4)cc3)c3ccccc3nc21` [15(c), 1-ethyl-N-[4-[2-(4-morpholinyl)ethoxy]phenylmethyl]-1H-pyrazolo[3,4-b]quinolin-4-amine], at cGMP-PDE V [1], the inhibition at 10 µM was determined as 34%. Also, on cGMP-PDE V [3], the inhibition at 0.1 µM was 0% and the inhibition at 1 µM is 20%.

On to `CCn1ncc2c(NCc3ccccn3)c3ccccc3nc21` [Example 21, 1-ethyl-N-(2-pyridinylmethyl)-1H-pyrazolo[3,4-b]quinolin-4-amine-2CH3SO3 H], for which, at cGMP-PDE V [1], the inhibition at 10 µM turned out to be 97%. Also, on cGMP-PDE V [3], the inhibition at 0.1 µM amounted to 27% and the inhibition at 1 µM turned out to be 58%. For the compound `CCn1ncc2c(NCc3ccccc3)c3ccc(O)cc3nc21` [Example 6, 1-ethyl-7-hydroxy-N-(phenylmethyl)-1H-pyrazolo[3,4-b]quinolin-4-amine], the inhibition at 10 µM on cGMP-PDE V [1] stood at 85%. On cGMP-PDE V [3], the inhibition at 0.1 µM worked out at 17% and the inhibition at 1 µM amounted to 50%. Regarding `CCn1ncc2c(NCc3ccc(OC)c(OC)c3)c3ccccc3nc21` [Example 7, 1-ethyl-N-(3,4-dimethoxyphenylmethyl)-1H-pyrazolo[3,4-b]quinolin-4-amine], the 50% inhibitory concentration (IC50) at cGMP-PDE V [1] is 180 nM. Still for that read-out and setting: to `CCn1nc(C)c2c(NCc3ccccc3)c3ccccc3nc21` [9(d), 1-ethyl-3-methyl-N-(phenylmethyl)-1H-pyrazolo[3,4-b]quinolin-4-amine·HCl] belongs 170 nM; to `CCn1ncc2c(NCc3cccc(O)c3)c3ccccc3nc21` [Example 14, 1-ethyl-N-(3-hydroxyphenylmethyl)-1H-pyrazolo[3,4-b]quinolin-4-amine·2 CH3 SO3 H], 86 nM.

For `CCn1ncc2c(NCc3cccc(OC)c3)c3ccccc3nc21` [Example 11, 1-ethyl-N-(3-methoxyphenylmethyl)-1H-pyrazolo[3,4-b]quinolin-4-amine], the IC50 against cGMP-PDE V [1] came out at 450 nM.

With `CCn1ncc2c(NCc3ccc(O)cc3)c3ccccc3nc21` [18(a), 1-ethyl-N-(4-hydroxyphenylmethyl)-1H-pyrazolo[3,4-b]quinolin-4-amine CH3 SO3 H], the IC50 at cGMP-PDE V [1] was 91 nM.

`CC(C)n1ncc2c(NCc3ccccc3)c3ccccc3nc21` [4(c), 1-isopropyl-N-(phenylmethyl)-1H-pyrazolo[3,4-b]quinolin-4-amine] had an IC50 against cGMP-PDE V [1] of 180 nM. With `CCn1ncc2c(NCc3ccc(C#N)cc3)c3ccccc3nc21` [Example 10, 1-ethyl-N-(4-cyanophenylmethyl)-1H-pyrazolo[3,4-b]quinolin-4-amine], the inhibition at 10 µM on cGMP-PDE V [1] was found to be 57%. For the same compound, the inhibition at 1 µM at cGMP-PDE V [3] was 0%.

`CCn1ncc2c(NCc3cccnc3)c3ccccc3nc21` [Example 19, 1-ethyl-N-(3-pyridinylmethyl)-1H-pyrazolo[3,4-b]quinolin-4-amine ·2CH3 SO3 H]: at cGMP-PDE V [1], the inhibition at 10 µM was found to be 75%. Further, at cGMP-PDE V [3], the inhibition at 0.1 µM was determined as 10% and the inhibition at 1 µM was determined as 43%. As to `Cc1nn(C)c2nc3ccccc3c(NCc3cccnc3)c12` [N-(3-pyridinylmethyl), N-(3-pyridinylmethyl)-1,3-dimethyl-1H-pyrazolo[3,4-b] quinolin-4-amine], the “activity in the interferon assay” value with interferon is “inactive”.
